Results from ChEMBL document CHEMBL5625202, “Synthesis, characterization and anti-breast cancer activities of stachydrine derivatives” (Eur J Med Chem, 2023).
Active and inactive are the calls of the source. The rule behind the calls is not given here.

Experiments:
[1] = Toxicity in BALB/c mouse implanted with mouse 4T1 cells assessed as effect on BUN level at 0.2 mmol/Kg, po administered once every day for 14 days by routine blood analysis; format: organism-based; details: in vivo, 336 h, time 14 day
[2] = Toxicity in BALB/c mouse implanted with mouse 4T1 cells assessed as increase in mean platelet volume at 0.2 mmol/Kg, po administered once every day for 14 days by routine blood analysis; format: organism-based; details: in vivo, 336 h, time 14 day
[3] = Prodrug conversion in carboxylesterase (unknown origin) solution assessed as drug hydrolysis by measuring stachydrine release at 3 to 20 hrs; format: ADME, Homo sapiens; details: time 3-20 hrs
[4] = Toxicity in BALB/c mouse implanted with mouse 4T1 cells assessed as body weight loss at 0.2 mmol/Kg, po administered once daily for 14 days; format: organism-based; details: in vivo, 336 h, time 14 day
[5] = Toxicity in BALB/c mouse implanted with mouse 4T1 cells assessed as reduction in spleen index at 0.2 mmol/Kg, po administered once every day for 14 days relative to control; format: organism-based; set-up: scale not given: the % may be the effect or the level left; details: in vivo, 336 h, at 0.2 mmol/kg, time 14 day
[6] = AUC (0 to t) in Sprague-Dawley rat plasma at 10 mg/kg, po measured upto 24 hrs by LC-MS/MS analysis; format: ADME, organism-based
[7] = tested on: 4T1; test: Anticancer activity against mouse 4T1 cells assessed as inhibition of cell growth incubated for 24 hrs by CCK-8 assay; format: functional, cell-based; details: 4T1, 24 h
[8] = tested on: 4T1; test: Inhibition of cell migration in mouse 4T1 cells assessed as expansion of wound area at 30 micromol/mL incubated for 24 hrs by microscopic analysis; format: functional, cell-based; details: dose 30.0 µmol/ml
[9] = Toxicity in BALB/c mouse implanted with mouse 4T1 cells assessed as increase in lymphocytes at 0.2 mmol/Kg, po administered once every day for 14 days by routine blood analysis; format: organism-based; details: in vivo, 336 h, time 14 day
[10] = tested on: 4T1; test: Induction of apoptosis in mouse 4T1 cells assessed as apoptotic rate at 1.25 micromol/L incubated for 24 hrs by Annexin-V/PI staining based flow cytometry relative to control; format: functional; details: dose 1.25 µmol/L, at 1.25 µM
[11] = tested on: 4T1; test: Induction of mitochondrial membrane potential loss in mouse 4T1 cells assessed as red fluorescence at 10 uM incubated for 24 hrs by JC-1 staining based flow cytometric analysis (Rvb= 87.9%); format: cell-based
[12] = Toxicity in BALB/c mouse implanted with mouse 4T1 cells assessed as increase in spleen edema at 0.2 mmol/Kg, po administered once every day for 14 days relative to control; format: organism-based; details: in vivo, 336 h, time 14 day
[13] = tested on: 4T1; test: Induction of apoptosis in mouse 4T1 cells assessed as apoptotic rate at 40 micromol/L incubated for 24 hrs by Annexin-V/PI staining based flow cytometry relative to control; format: functional; details: dose 40 µmol/L, at 40 µM
[14] = Toxicity in BALB/c mouse implanted with mouse 4T1 cells assessed as increase in monocytes at 0.2 mmol/Kg, po administered once every day for 14 days by routine blood analysis; format: organism-based; details: in vivo, 336 h, time 14 day
[15] = Toxicity in BALB/c mouse implanted with mouse 4T1 cells assessed as change in lung histopathology at 0.2 mmol/Kg, po administered once every day for 14 days; format: organism-based; details: in vivo, 336 h, time 14 day
[16] = Toxicity in BALB/c mouse implanted with mouse 4T1 cells assessed as effect on CREA level at 0.2 mmol/Kg, po administered once every day for 14 days by routine blood analysis; format: organism-based; details: in vivo, 336 h, time 14 day
[17] = Prodrug conversion in Sprague-Dawley rat plasma assessed as Stachydrine release at 10 mg/kg, iv measured after 24 hrs by LC-MS/MS analysis; format: ADME, organism-based; details: in vivo
[18] = tested on: 4T1; test: Induction of apoptosis in mouse 4T1 cells assessed as increase in Bax expression at 10 uM incubated for 24 hrs by Western blot analysis; format: functional, cell-based
[19] = Toxicity in BALB/c mouse implanted with mouse 4T1 cells assessed as increase in ALT level at 0.2 mmol/Kg, po administered once every day for 14 days by routine blood analysis; format: organism-based; details: in vivo, 336 h, time 14 day
[20] = tested on: 4T1; test: Antitumor activity against mouse 4T1 cells implanted in BALB/c mouse assessed as tumor cell shrinkage at 0.2 mmol/Kg, po administered once every day for 14 days by histological staining based analysis; format: functional, organism-based; details: time 14.0 day
[21] = Toxicity in BALB/c mouse implanted with mouse 4T1 cells assessed as increase in neutrophil granulocytes at 0.2 mmol/Kg, po administered once every day for 14 days by routine blood analysis; format: organism-based; details: in vivo, 336 h, time 14 day
[22] = tested on: 4T1; test: Induction of apoptosis in mouse 4T1 cells assessed as decrease in Bcl2 expression at 10 uM incubated for 24 hrs by Western blot analysis; format: functional, cell-based
[23] = Tmax in Sprague-Dawley rat plasma at 10 mg/kg, po measured upto 24 hrs by LC-MS/MS analysis; format: ADME, organism-based
[24] = Toxicity in BALB/c mouse implanted with mouse 4T1 cells assessed as increase in splenic red pulp at 0.2 mmol/Kg, po administered once every day for 14 days; format: organism-based; details: in vivo, 336 h, time 14 day
[25] = tested on: 4T1; test: Antitumor activity against mouse 4T1 cells implanted in BALB/c mouse assessed as tumor growth inhibition at 0.2 mmol/Kg, po administered once every day for 14 days relative to control; format: functional; details: 4T1, 336 h, time 14 day, read-out: TGI
[26] = tested on: 4T1; test: Induction of G0/G1 phase cell cycle arrest in mouse 4T1 cells assessed as decrease in S phase cells at 1.25 to 40 uM incubated for 24 hrs by flow cytometry; format: functional, cell-based; details: dose 1.25-40 µM
[27] = tested on: 4T1; test: Induction of cell cycle arrest in mouse 4T1 cells assessed as accumulation of cells in G0/G1 phase at 40 micromol/L incubated for 24 hrs by flow cytometry (reference value: 53.6%); format: functional; details: dose 40 µmol/L, at 40 µM
[28] = tested on: 4T1; test: Antitumor activity against mouse 4T1 cells implanted in BALB/c mouse assessed as tumor cell necrosis at 0.2 mmol/Kg, po administered once every day for 14 days by histological staining based analysis; format: functional, organism-based; details: time 14.0 day
[29] = Toxicity against BALB/c mouse implanted with mouse 4T1 cells assessed as animal death at 0.2 mmol/Kg, po administered once every day for 14 days; format: organism-based; details: in vivo, 336 h, time 14 day
[30] = tested on: 4T1; test: Anticancer activity against mouse 4T1 cells assessed as inhibition of cell growth incubated for 48 hrs by CCK-8 assay; format: functional, cell-based; details: 4T1, 48 h
[31] = tested on: 4T1; test: Induction of apoptosis in mouse 4T1 cells assessed as increase in cleaved caspase-3 expression at 10 uM incubated for 24 hrs by Western blot analysis; format: functional, cell-based
[32] = tested on: 4T1; test: Induction of apoptosis in mouse 4T1 cells assessed as caspase-3 activation at 10 uM incubated for 24 hrs by Western blot analysis; format: functional, cell-based
[33] = Prodrug conversion in serum (unknown origin) assessed as drug hydrolysis by measuring stachydrine release at 3 to 20 hrs; format: ADME, cell-free; details: time 3-20 hrs
[34] = tested on: 4T1; test: Anticancer activity against mouse 4T1 cells assessed as inhibition of cell growth incubated for 72 hrs by CCK-8 assay; format: functional, cell-based; details: 4T1, 72 h
[35] = Toxicity in BALB/c mouse implanted with mouse 4T1 cells assessed as blurred spleen morphology at 0.2 mmol/Kg, po administered once every day for 14 days; format: organism-based; details: in vivo, 336 h, time 14 day
[36] = tested on: 4T1; test: Inhibition of cell invasion in mouse 4T1 cells at 30 micromol/mL incubated for 24 hrs by microscopic analysis; format: functional, cell-based; details: dose 30.0 µmol/ml
[37] = Cmax in Sprague-Dawley rat plasma at 10 mg/kg, po measured upto 24 hrs by LC-MS/MS analysis; format: ADME, organism-based
[38] = tested on: 4T1; test: Induction of G0/G1 phase cell cycle arrest in mouse 4T1 cells assessed as decrease in G2/M phase cells at 1.25 to 40 uM incubated for 24 hrs by flow cytometry; format: functional, cell-based; details: dose 1.25-40 µM

Q: Which Activity [1] does the source give for CCCCCCCCCCCCOC(=O)C1CCC[N+]1(C)C.[Cl-] (stereo not drawn) here?
A: Non-Toxic

Q: And the Activity [2]?
A: Non-Toxic

Q: And the Drug metabolism [3]?
A: Metabolite_Detected

Q: And the Activity [4]?
A: Toxic

Q: What about the Activity [5] of the same molecule?
A: 60%

Q: And the AUC(0-t) at 24 h [6]?
A: 14800 ng·h/mL

Q: What about the IC50 [7] of the same molecule?
A: 24.7 µM

Q: And the inhibition [8]?
A: Active

Q: What about the Activity [9] of the same molecule?
A: Non-Toxic

Q: And the Activity [10]?
A: 38.5%

Q: And the Activity [11]?
A: 43.1%

Q: And the Activity [12]?
A: Toxic

Q: What about the Activity [13] of the same molecule?
A: 71.3%

Q: And the Activity [14]?
A: Non-Toxic

Q: What about the Activity [15] of the same molecule?
A: Non-Toxic

Q: And the Activity [16]?
A: Non-Toxic

Q: What about the Drug metabolism [17] of the same molecule?
A: Metabolite_Detected

Q: And the Activity [18]?
A: Active

Q: And the Activity [19]?
A: Toxic

Q: What about the Activity [20] of the same molecule?
A: Active

Q: And the Activity [21]?
A: Non-Toxic

Q: What about the Activity [22] of the same molecule?
A: Active

Q: And the Tmax [23]?
A: 2 h

Q: And the Activity [24]?
A: Toxic

Q: What about the inhibition in vivo at 200 µmol/kg [25] of the same molecule?
A: 56.3%

Q: What about the Activity [26] of the same molecule?
A: Active

Q: What about the Activity [27] of the same molecule?
A: 64.5%

Q: What about the Activity [28] of the same molecule?
A: Active

Q: What about the Activity [29] of the same molecule?
A: Non-Toxic

Q: What about the IC50 [30] of the same molecule?
A: 17.9 µM

Q: And the Activity [31]?
A: Active

Q: What about the Activity [32] of the same molecule?
A: Active

Q: What about the Drug metabolism [33] of the same molecule?
A: Metabolite_Detected

Q: And the IC50 [34]?
A: 8.35 µM

Q: And the Activity [35]?
A: Toxic

Q: And the inhibition [36]?
A: Active

Q: What about the Cmax [37] of the same molecule?
A: 6100 ng/mL

Q: And the Activity [38]?
A: Active
